Key:
[1] = system: AsPC-1 (G12D); test: In vitro cell proliferation inhibition test (CellTiter-Glo Luminescent Cell Viability Assay); format: cell-based; conditions: AsPC-1 cell line, Pancreas, KRAS (p.G12D), cells and compounds co-incubated 72 hours
Description: (§1) Due to the diversity of RAS mutations and in order to evaluate the activity of compounds in different RAS mutant cell lines, we selected KRAS^WT, KRAS^G12C, KRAS^G12D), KRAS^G12V and BRAF mutant cell lines (see the table below) for in vitro activity evaluation and screening of compounds .
(§2) Experimental protocol: CellTiter-Glo® Cell Luminescent Viability Assay (Promega)
(§3) According to the doubling time of different cell lines, different numbers of cells (1000-5000 cells/well) were inoculated into 96-well plates containing 180 µl of the corresponding medium, and cultured overnight in a 37°C cell incubator containing 5% CO2. On the second day, the compound to be tested was pre-diluted 3-fold with the medium, the highest concentration was 100 µM, and there were 10 concentration gradients in total; then 20 µl of the medium containing different concentrations of the compound was added to the cells in the 96-well plate to ensure the final concentration of the compound to be up to 10 µM, with 10 concentration gradients of 3-fold dilutions. After co-incubating cells and compounds for 72 hours, the 96-well plate was taken out of the incubator, placed at room temperature for 30 minutes, and then 25 µl CellTiter-Glo® Reagent was added to each well to mix well, and incubated at room temperature for 10 minutes, and then 100 µl of the sample was transferred to a white 96-well plate (OptiPlateTM-96, PerkinElmer), the […] signal value was read using a multi-functional microplate reader (SpectraMax® i3x, Molecular devices). Subsequently, the signal value was standardized, and the four-parameter fitting regression equation was used for curve fitting to calculate the half maximal inhibitory concentration (IC50) of the compound on the cell line. Table 3: Antiproliferative activity of compounds of the present invention on KRAS cell mutants

[2] = system: SW480 (G12V); test: as above; format: cell-based; conditions: SW480 cell line, Large intestine, Colon, KRAS (p.G12V), cells and compounds co-incubated 72 hours
Description: as §1, §2, §3

Row | Molecule | IC50 [1] | IC50 [2] | further results
1 | CCn1c(-c2cc(C#CC3CN(C)CCO3)cnc2C(C)OC)c2c3cc(ccc31)-c1csc(n1)CC(NC(=O)C1CC1C)C(=O)N1CCCC(N1)C(=O)OCC(C)(C)C2 (single isomer, unassigned) [Example 6] | 14 nM | 18.5 nM | IC50 ([1]; listed as 6'): 3960 nM; IC50 ([2]; listed as 6'): 1830 nM
2 | CCn1c(-c2cc(C#CC3CCCN3C)cnc2C(C)OC)c2c3cc(ccc31)-c1csc(n1)CC(NC(=O)C1C(C)C1C)C(=O)N1CCCC(N1)C(=O)OCC(C)(C)C2 [Example 11, (1r,2R,3S)-N-((63S,4S,Z)-11-ethyl-12-(2-((S)-1-methoxyethyl)-5-(((S)-1-methylpyrrolidin-2-yl)ethynyl)pyridin-3-yl)-10,10-dimethyl-5,7-dioxo-61,62,63,64,65,66-hexahydro-11H-8-oxa-2(4,2)-thiazola-1(5,3)-indola-6(1,3)-pyridazinacyclonecaphane-4-yl)-2,3-dimethylcyclopropane-1-carboxamide] | 1.7 nM |  | 
3 | CO[C@@H](C)c1ncc(C#CCN2CCOCC2)cc1-c1c2c3cc(ccc3n1CC(F)(F)F)-c1csc(n1)C[C@H](NC(=O)[C@H]1C[C@@H]1C)C(=O)N1CCC[C@H](N1)C(=O)OCC(C)(C)C2 (single isomer, unassigned) [Example 3] | 3.5 nM | 2.2 nM | IC50 ([1]; listed as 3'): 292 nM; IC50 ([2]; listed as 3'): 2060 nM
4 | CCn1c(-c2cc(C#CC3CN(C)C3)cnc2C(C)OC)c2c3cc(ccc31)-c1csc(n1)CC(NC(=O)C1CC1C)C(=O)N1CCCC(N1)C(=O)OCC(C)(C)C2 [Example 12, (1S,2S)-N-((63S,4S,Z)-11-ethyl-12-(2-((S)-1-methoxyethyl)-5-((1-methylazetidin-3-yl)ethynyl)pyridin-3-yl)-10,10-dimethyl-5,7-dioxo-61,62,63,64,65,66-hexahydro-11H-8-oxa-2(4,2)-thiazola-1(5,3)-indola-6(1,3)-pyridazinacyclonecaphane-4-yl)-2-methylcyclopropane-1-carboxamide] | 11.8 nM | 33.9 nM | IC50 ([1]; listed as 12'): 443 nM; IC50 ([2]; listed as 12'): 1790 nM
5 | CCn1c(-c2cc(C#Cc3cccnc3)cnc2C(C)OC)c2c3cc(ccc31)-c1csc(n1)CC(NC(=O)C1CC1C)C(=O)N1CCCC(N1)C(=O)OCC(C)(C)C2 [Example 17, (1S,2S)-N-((63S,4S,Z)-11-ethyl-12-(2-((S)-1-methoxyethyl)-5-(pyridin-3-ylethynyl)pyridin-3-yl)-10,10-dimethyl-5,7-dioxo-61,62,63,64,65,66-hexahydro-11H-8-oxa-2(4,2)-thiazola-1(5,3)-indola-6(1,3)-pyridazinacyclonecaphane-4-yl)-2-methylcyclopropane-1-carboxamide] | 37.8 nM | 30.2 nM | IC50 ([1]; listed as 17'): 700 nM; IC50 ([2]; listed as 17'): 474 nM
6 | (1S,2S)-N-((6^3S,4S,Z)-1^1-ethyl-1^2-(2-((S)-1-methoxyethyl)-5-(pyrimidin-5-ylethynyl)pyridin-3-yl)-10,10-dimethyl-5,7-dioxo-6^1,6^2,6^3,6^4,6^5,6^6-hexahydro-1^1H-8-oxa-2(4,2)-thiazola-1(5,3)-indola-6(1,3)-pyridazinacycloundecaphane-4-yl)-2-methylcyclopropane-1-carboxamide [Example 22] | 6.5 nM | 19.2 nM | 
7 | CCn1c(-c2cc(C#CCN3C[C@@H](C)O[C@@H](C)C3)cnc2[C@H](C)OC)c2c3cc(ccc31)-c1csc(n1)C[C@H](NC(=O)[C@H]1C[C@@H]1C)C(=O)N1CCC[C@H](N1)C(=O)OCC(C)(C)C2 (single isomer, unassigned) [Example 9] | 4.5 nM | 31.6 nM | IC50 ([1]; listed as 9'): 1360 nM; IC50 ([2]; listed as 9'): 963 nM
8 | CCNc1ccc(C#Cc2cnc(C(C)OC)c(-c3c4c5cc(ccc5n3CC)-c3csc(n3)CC(NC(=O)C3C(C)C3C)C(=O)N3CCCC(N3)C(=O)OCC(C)(C)C4)c2)nn1 [32+32, (1r,2R,3S)-N-((6^3S,4S,Z)-1^1-ethyl-1^2-(5-((6-(ethylamino)pyridazin-3-yl)ethynyl)-2-((S)-1-methoxyethyl)pyridin-3-yl)-10,10-dimethyl-5,7-dioxo-6^1,6^2,6^3,6^4,6^5,6^6-hexahydro-1^1H-8-oxa-2(4,2)-thiazola-1(5,3)-indola-6(1,3)-pyridazinacycloundecaphane-4-yl)-2,3-dimethylcyclopropane-1-carboxamide] | 15.3 nM | 55.4 nM | 
9 | CCn1c(-c2cc(C#Cc3ccccn3)cnc2[C@H](C)OC)c2c3cc(ccc31)-c1csc(n1)C[C@H](NC(=O)[C@H]1C[C@@H]1C)C(=O)N1CCC[C@H](N1)C(=O)OCC(C)(C)C2 [Example 16, (1S,2S)-N-((63S,4S,Z)-11-ethyl-12-(2-((S)-1-methoxyethyl)-5-(pyridin-2-ylethynyl)pyridin-3-yl)-10,10-dimethyl-5,7-dioxo-61,62,63,64,65,66-hexahydro-11H-8-oxa-2(4,2)-thiazola-1(5,3)-indola-6(1,3)-pyridazinacyclonecaphane-4-yl)-2-methylcyclopropane-1-carboxamide] | 38.8 nM | 28.8 nM | IC50 ([1]; listed as 16'): 591 nM; IC50 ([2]; listed as 16'): 584 nM
10 | CCn1c(-c2cc(C#CCN(C)C3CCOCC3)cnc2C(C)OC)c2c3cc(ccc31)-c1csc(n1)CC(NC(=O)C1C(C)C1C)C(=O)N1CCCC(N1)C(=O)OCC(C)(C)C2 [Example 36, (1r,2R,3S)-N-((6^3S,4S,Z)-1^1-ethyl-1^2-(2-((S)-1-methoxyethyl)-5-(3-(methyl(tetrahydro-2H-pyran-4-yl)amino)prop-1-yn-1-yl)pyridin-3-yl)-10,10-dimethyl-5,7-dioxo-6^1,6^2,6^3,6^4,6^5,6^6-hexahydro-1^1H-8-oxa-2(4,2)-thiazola-1(5,3)-indola-6(1,3)-pyridazinacycloundecaphane-4-yl)-2,3-dimethylcyclopropane-1-carboxamide] | 0.73 nM | 0.54 nM | 
11 | CCn1c(-c2cc(C#Cc3cnc(N)cn3)cnc2[C@H](C)OC)c2c3cc(ccc31)-c1csc(n1)C[C@H](NC(=O)[C@H]1C[C@@H]1C)C(=O)N1CCC[C@H](N1)C(=O)OCC(C)(C)C2 [Example 35, (1S,2S)-N-((6^3S,4S,Z)-1^2-(5-((5-aminopyrazin-2-yl)ethynyl)-2-((S)-1-methoxyethyl)pyridin-3-yl)-1^1-ethyl-10,10-dimethyl-5,7-dioxo-6^1,6^2,6^3,6^4,6^5,6^6-hexahydro-1^1H-8-oxa-2(4,2)-thiazola-1(5,3)-indola-6(1,3)-pyridazinacycloundecaphane-4-yl)-2-methylcyclopropane-1-carboxamide] |  |  | IC50 ([1]; Homo sapiens, ASPC1): 56 nM; IC50 ([2]; Homo sapiens): 37 nM
12 | (1S,2S)-N-((6^3S,4S,Z)-1^1-ethyl-1^2-(5-(((R)-4-(2-hydroxyethyl)morpholin-3-yl)ethynyl)-2-((S)-1-methoxyethyl)pyridin-3-yl)-10,10-dimethyl-5,7-dioxo-6^1,6^2,6^3,6^4,6^5,6^6-hexahydro-1^1H-8-oxa-2(4,2)-thiazola-1(5,3)-indola-6(1,3)-pyridazinacycloundecaphane-4-yl)-2-methylcyclopropane-1-carboxamide [Example 33] | 2.9 nM | 6.5 nM | 
13 | CCn1c(-c2cc(C#Cc3cnc4c(c3)CN(C)C4)cnc2[C@H](C)OC)c2c3cc(ccc31)-c1csc(n1)C[C@H](NC(=O)[C@H]1C[C@@H]1C)C(=O)N1CCC[C@H](N1)C(=O)OCC(C)(C)C2 [Example 46, (1S,2S)-N-((6^3S,4S,Z)-1^1-ethyl-1^2-(2-((S)-1-methoxyethyl)-5-((6-methyl-6,7-dihydro-5H-pyrrolo[3,4-b]pyridin-3-yl)ethynyl)pyridin-3-yl)-10,10-dimethyl-5,7-dioxo-6^1,6^2,6^3,6^4,6^5,6^6-hexahydro-1^1H-8-oxa-2(4,2)-thiazola-1(5,3)-indola-6(1,3)-pyridazinacycloundecaphane-4-yl)-2-methylcyclopropane-1-carboxamide] | 19.5 nM | 11.4 nM | 

From patent EP4582426A1, “PAN-KRAS INHIBITOR COMPOUND” (Adlai Nortye Biopharma Co., Ltd., priority 2022, dated 2024)
